Test results as given in patent US9657351B2, “MRNA-based gene expression for personalizing patient cancer therapy with an MDM2 antagonist” (Hoffmann-La Roche Inc., priority 2013, dated 2017).
pIC50: −log10 of the molar value.

Legend:
Assay in all cases: COMPOUND A In Vitro Assay
Format in all cases: cell-based
A2058 = details: Homo sapiens, Skin, TP53 Mutant
From the text: (§1) To generate an MDM2 antagonist therapy predictive signature, the response of MDM2 antagonist therapy in vitro with gene expression profiling (FIG. 1) is combined. A bank of 287 human cancer cell lines, collectively termed the Cell Lines for Oncology/Chugai ACcumulative Tumour EncycLopedia (CELLO/CACTEL), representing a broad array of diverse human cancer tumor types are subject to evaluation using several high-throughput genomic technology platforms. The mutational status of nucleic acids from each cell line is determined by exome sequencing. Messenger RNA (mRNA) expression levels at baseline, prior to MDM2 antagonist therapy, are obtained via RNA sequencing. MDM2 antagonist therapy COMPOUND A, sometimes referred to herein as RG7112, responses are obtained by assays known to those skilled in the art such as RNA sequencing and microarray measurement using Gene Chip Human Genome U133 Plus 2.0 Array. The MDM2 therapy responses are obtained by high throughout screening assays. Depending on their responses to COMPOUND A these cell lines are classified as either sensitive, defined as IC50<=1, or resistant, defined as IC50>=10.
(§2) 281 cells are treated with MDM2 antagonists and the IC50 (therapy response) is generated. The cell lines span a broad range of tumor cell types of derivation.

ES2 = details: Homo sapiens, ES-2, Ovary, TP53 NA
From the text: as §1, §2

T24 = details: Homo sapiens, T-24, Urinary, bladder, TP53 Mutant
From the text: as §1, §2

SH-SY5Y = details: Homo sapiens
From the text: as §1, §2

UM-UC-3 = details: Homo sapiens, UMUC3, Urinary, bladder, TP53 Mutant
From the text: as §1, §2

SNU-1 = details: Homo sapiens
From the text: as §1, §2

HCC1954 = details: Homo sapiens, Breast, mammary gland, TP53 Mutant
From the text: as §1, §2

SR = details: Homo sapiens, Lymphocyte, TP53 Wild type
From the text: as §1, §2

SW626 = details: Homo sapiens, Ovary, TP53 Mutant
From the text: as §1, §2

MDA-MB-231 = details: Homo sapiens, Breast, mammary gland, TP53 Mutant
From the text: as §1, §2

NCI-H1944 = details: Homo sapiens, Lung, TP53 Wild type
From the text: as §1, §2

WiDr = details: Homo sapiens, Intestine, large, colon, TP53 Mutant
From the text: as §1, §2

HPAC = details: Homo sapiens, Pancreas, TP53 Mutant
From the text: as §1, §2

SK-MES-1 = details: Homo sapiens, Lung, TP53 Mutant
From the text: as §1, §2

NCI-H661 = details: Homo sapiens, Lung, TP53 Mutant
From the text: as §1, §2

TF-1a = details: Homo sapiens, Bone marrow, TP53 Mutant
From the text: as §1, §2

HCC1937 = details: Homo sapiens, Breast, TP53 NA
From the text: as §1, §2

A-431 = details: Homo sapiens, Skin, epidermis, TP53 Mutant
From the text: as §1, §2

A-172 = details: Homo sapiens
From the text: as §1, §2

U-698-M = details: Homo sapiens, Tonsil, TP53 Mutant
From the text: as §1, §2

NCI-H82 = details: Homo sapiens, Lung, TP53 Wild type
From the text: as §1, §2

MDA-MB-435S = details: Homo sapiens, Skin, TP53 Mutant
From the text: as §1, §2

HEL = details: Homo sapiens, Lymphocyte, peripheral blood, TP53 Mutant
From the text: as §1, §2

IMR-32 = details: Homo sapiens
From the text: as §1, §2

THP-1 = details: Homo sapiens, Blood, TP53 Mutant
From the text: as §1, §2

143B = details: Homo sapiens, Bone, TP53 Mutant
From the text: as §1, §2

HUP-T4 = details: Homo sapiens, Pancreas, TP53 Mutant
From the text: as §1, §2

HCC1187 = details: Homo sapiens, Breast, mammary gland, TP53 Mutant
From the text: as §1, §2

NCI-H1838 = details: Homo sapiens, Lung, TP53 Mutant
From the text: as §1, §2

HCC366 = details: Homo sapiens, Lung, TP53 Mutant
From the text: as §1, §2

MDA-MB-453 = details: Homo sapiens, Breast, mammary gland, TP53 Mutant
From the text: as §1, §2

HDLM-2 = details: Homo sapiens, Lymphocyte B, TP53 Mutant
From the text: as §1, §2

EFO-21 = details: Homo sapiens, Ovary, TP53 Mutant
From the text: as §1, §2

SW1417 = details: Homo sapiens, Intestine, large, colon, TP53 Mutant
From the text: as §1, §2

647-V = details: Homo sapiens, Urinary tract, urothelium, TP53 Mutant
From the text: as §1, §2

SK-N-DZ = details: Homo sapiens, Brain, TP53 Mutant
From the text: as §1, §2

NUGC-3 = details: Homo sapiens, Stomach, TP53 Mutant
From the text: as §1, §2

NCI-H446 = details: Homo sapiens, Lung, TP53 Mutant
From the text: as §1, §2

Q: Which results are given for `CCOc1cc(C(C)(C)C)ccc1C1=N[C@@](C)(c2ccc(Cl)cc2)[C@@](C)(c2ccc(Cl)cc2)N1C(=O)N1CCN(CCCS(C)(=O)=O)CC1` [COMPOUND A]?
A: pIC50 (A2058): 4.77; pIC50 (ES2): 5.48; pIC50 (T24): 4.68; pIC50 (SH-SY5Y; Brain, TP53 Wild type): 6.12; pIC50 (SH-SY5Y; SH-SY5Y cells): 6.10; pIC50 (UM-UC-3): 4.82; pIC50 (SNU-1; SNU1, SNU-1, Stomach, TP53 Wild type): 6.43; pIC50 (SNU-1; SNU1, SNU-1 cells): 6.40; pIC50 (HCC1954): 4.92; pIC50 (SR): 7.37; pIC50 (SW626): 5.02; pIC50 (MDA-MB-231): 4.77; pIC50 (NCI-H1944): 5.15; pIC50 (WiDr): 5.05; pIC50 (HPAC): 5.34; pIC50 (SK-MES-1): 5.22; pIC50 (NCI-H661): 4.96; pIC50 (TF-1a): 5.00; pIC50 (HCC1937): 4.82; pIC50 (A-431): 5.02; pIC50 (A-172; A 172, A-172, Brain, TP53 Wild type): 6.24; pIC50 (A-172; A 172, A-172 cells): 6.22; pIC50 (U-698-M): 5.01; pIC50 (NCI-H82): 5.31; pIC50 (MDA-MB-435S): 4.92; pIC50 (HEL): 4.77; pIC50 (IMR-32; IMR-32, IMR-32, Brain, TP53 Wild type): 6.37; pIC50 (IMR-32; IMR-32, IMR-32 cells): 6.40; pIC50 (THP-1): 5.01; pIC50 (143B): 4.82; pIC50 (HUP-T4): 4.77; pIC50 (HCC1187): 4.92; pIC50 (NCI-H1838): 5.01; pIC50 (HCC366): 5.06; pIC50 (MDA-MB-453): 4.70; pIC50 (HDLM-2): 4.48; pIC50 (EFO-21): 4.51; pIC50 (SW1417): 5.00; pIC50 (647-V): 4.77; pIC50 (SK-N-DZ): 5.24; pIC50 (NUGC-3): 5.01; pIC50 (NCI-H446): 4.74
